Laboratory results as given in patent publication US20250346600A1, “TRICYCLIC DERIVATIVES AND RELATED USES” (MOMA Therapeutics, Inc., priority 2023, published 2025).

How the values were obtained:
[1] = target: T1, Full length WRN protein (aa 2-1432) (Homo sapiens (Human), UniProt Q14191); experiment: WRN ATPase ADP-Glo biochemical assay, Assay Format A (10 μM ATP); conditions: 0.25 nM WRN, 100 nM C6.18 ssDNA, 30 min preincubation, read-out: ATPase ADPGlo AC50 (uM)- Assay Format A
Summary of the method: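 ADP-Glo luminescence measured hydrolysis of ATP by purified, baculovirus-expressed N-terminally tagged full-length WRN. Enzyme (0.5 nM) was preincubated 30 min with compound, then 200 nM ssDNA C6.18 plus 20 μM ATP were added (pre-mix levels) for 30 min at RT. IC50s come from four-parameter fits, geometric mean of at least two trials.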

[2] = target: T1, Full length WRN protein (aa 2-1432); experiment: WRN ATPase ADP-Glo biochemical assay, Assay Format B (100 μM ATP); conditions: 0.25 nM WRN, 100 nM C6.18 ssDNA, 60 min preincubation, read-out: ATPase ADPGlo AC50 (uM)- Assay Format B
HCT116 cells = experiment: HCT116 (MSI) 7 day viability, CellTiter Glo; format: cell-based; conditions: Homo sapiens, HCT-116, 168 h, 7 days, read-out: HCT116 (MSI) Viability 7 Day Abs AC50
Summary of the method: (§1)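 10 mM DMSO stocks serially diluted 3-fold, 10 steps; cells added (HCT116 50/well, HT29 500/well); 7 d, 37 °C, 5% CO2; CellTiter Glo 20 min RT; luminescence.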

HT29 cells = experiment: HT29 (MSS) 7 day viability, CellTiter Glo; format: cell-based; conditions: Homo sapiens, HT-29, 168 h, 7 days, read-out: HT29 (MSS) Viability 7 Day CTGAbs AC50
Summary of the method: as §1

T1 sequence (Q14191 2-1432): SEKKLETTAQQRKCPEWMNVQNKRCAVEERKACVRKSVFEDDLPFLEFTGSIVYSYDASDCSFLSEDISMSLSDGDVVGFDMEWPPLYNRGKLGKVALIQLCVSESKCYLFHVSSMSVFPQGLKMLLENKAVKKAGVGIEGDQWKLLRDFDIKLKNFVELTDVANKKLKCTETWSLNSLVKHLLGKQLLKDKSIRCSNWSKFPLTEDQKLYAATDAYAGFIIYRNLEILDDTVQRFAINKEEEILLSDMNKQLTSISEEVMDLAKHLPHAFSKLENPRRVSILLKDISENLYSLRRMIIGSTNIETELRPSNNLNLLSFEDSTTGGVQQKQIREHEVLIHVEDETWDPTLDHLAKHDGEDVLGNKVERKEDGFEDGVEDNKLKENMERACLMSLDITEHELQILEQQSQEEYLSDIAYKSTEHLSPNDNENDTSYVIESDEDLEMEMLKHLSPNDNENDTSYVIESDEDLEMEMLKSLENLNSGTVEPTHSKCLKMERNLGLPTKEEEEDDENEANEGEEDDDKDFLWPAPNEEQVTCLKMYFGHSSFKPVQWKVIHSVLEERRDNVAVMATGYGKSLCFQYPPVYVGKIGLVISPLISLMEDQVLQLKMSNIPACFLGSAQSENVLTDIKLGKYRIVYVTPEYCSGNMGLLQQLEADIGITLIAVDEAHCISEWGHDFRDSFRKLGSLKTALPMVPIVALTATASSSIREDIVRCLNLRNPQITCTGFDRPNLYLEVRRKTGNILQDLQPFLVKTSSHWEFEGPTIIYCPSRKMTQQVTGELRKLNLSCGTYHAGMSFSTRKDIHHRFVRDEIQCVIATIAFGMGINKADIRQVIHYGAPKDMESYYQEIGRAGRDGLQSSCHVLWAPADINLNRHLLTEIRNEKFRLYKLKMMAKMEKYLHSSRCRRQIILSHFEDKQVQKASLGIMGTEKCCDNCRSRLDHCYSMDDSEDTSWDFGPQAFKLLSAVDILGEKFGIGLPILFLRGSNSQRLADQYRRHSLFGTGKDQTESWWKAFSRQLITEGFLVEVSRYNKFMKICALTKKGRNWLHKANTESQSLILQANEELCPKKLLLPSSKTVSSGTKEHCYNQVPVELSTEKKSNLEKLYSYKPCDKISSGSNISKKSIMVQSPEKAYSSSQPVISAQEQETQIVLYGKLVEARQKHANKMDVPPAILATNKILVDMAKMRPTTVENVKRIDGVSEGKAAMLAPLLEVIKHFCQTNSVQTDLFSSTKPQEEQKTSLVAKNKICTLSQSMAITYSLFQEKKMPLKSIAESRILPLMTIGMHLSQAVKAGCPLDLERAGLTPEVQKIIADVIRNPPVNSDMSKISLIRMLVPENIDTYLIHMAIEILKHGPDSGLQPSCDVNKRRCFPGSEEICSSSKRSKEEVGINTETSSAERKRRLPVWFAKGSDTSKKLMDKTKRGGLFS

| Structure (SMILES) | AC50 [1] [µM] | AC50 [2] [µM] | AC50 (HCT116 cells) [nM] | AC50 (HT29 cells) [nM] |
| --- | --- | --- | --- | --- |
| C=CC(=O)N1CCc2nn(-c3ccc(C4CC4)cc3O)c3c2C(C1)N(C(=O)c1ccc(C(F)(F)F)cc1N)CC3 (stereo not shown) [Compound 245, 1-(5-(2-amino-4-(trifluoromethyl)benzoyl)-2-(4-cyclopropyl-2-hydroxyphenyl)-2,3,4,5,5a,6,8,9-octahydro-7H-1,2,5,7-tetraazabenzo[cd]azulen-7-yl)prop-2-en-1-one] | < 0.0015 | 0.005 to 0.015 | 1 to 100 | > 3000 |
| C=CC(=O)N1CC(OC2CC3(COC3)C2)c2nn(-c3ccc(C4CCC4)cc3)c3c2C(C1)N(C(=O)c1cnc(C(F)(F)F)cc1N)CC3 (stereo not shown) [Compound 246] | < 0.0015 | 0.005 to 0.015 | 1 to 100 | > 3000 |
| C=CC(=O)N1CCc2nn(-c3ccc(C4CC4)cc3O)c3c2C(C1)N(C(=O)c1cnc(OC(F)(F)F)c(F)c1N)CC3 (stereo not shown) [Compound 247, 1-(5-(4-amino-5-fluoro-6-(trifluoromethoxy)nicotinoyl)-2-(4-cyclopropyl-2-hydroxyphenyl)-2,3,4,5,5a,6,8,9-octahydro-7H-1,2,5,7-tetraazabenzo[cd]azulen-7-yl)prop-2-en-1-one] | 0.0015 to 0.005 | 0.005 to 0.015 | 1 to 100 | > 3000 |
| C=CC(=O)N1CCc2nn(-c3ccc(C4CC4)cc3O)c3c2C(C1)N(C(=O)c1nnc(C(F)(F)F)cc1N)CC3 (stereo not shown) [Compound 248, 1-(5-(4-amino-6-(trifluoromethyl)pyridazine-3-carbonyl)-2-(4-cyclopropyl-2-hydroxyphenyl)-2,3,4,5,5a,6,8,9-octahydro-7H-1,2,5,7-tetraazabenzo[cd]azulen-7-yl)prop-2-en-1-one] | < 0.0015 | 0.0015 to 0.005 | 1 to 100 | > 3000 |
| C=CC(=O)N1CC(OCc2nnc(C)s2)c2nn(-c3ccc(C4CC4)cc3)c3c2C(C1)N(C(=O)c1cnc(C(F)(F)F)cc1N)CC3 (stereo not shown) [Compound 249, 1-(5-(4-amino-6-(trifluoromethyl)nicotinoyl)-2-(4-cyclopropylphenyl)-9-((5-methyl-1,3,4-thiadiazol-2-yl)methoxy)-2,3,4,5,5a,6,8,9-octahydro-7H-1,2,5,7-tetraazabenzo[cd]azulen-7-yl)prop-2-en-1-one] | < 0.0015 | 0.0015 to 0.005 | 1 to 100 | > 3000 |
| C=CC(=O)N1CC(OCc2ncco2)c2nn(-c3ccc(C4CC4)cc3)c3c2C(C1)N(C(=O)c1cnc(C(F)(F)F)cc1N)CC3 (stereo not shown) [Compound 250, 1-(5-(4-amino-6-(trifluoromethyl)nicotinoyl)-2-(4-cyclopropylphenyl)-9-(oxazol-2-ylmethoxy)-2,3,4,5,5a,6,8,9-octahydro-7H-1,2,5,7-tetraazabenzo[cd]azulen-7-yl)prop-2-en-1-one] | < 0.0015 | < 0.0015 | 1 to 100 | > 3000 |
| C=CC(=O)N1CC(OCc2cccnc2)c2nn(-c3ccc(C4CC4)cc3)c3c2C(C1)N(C(=O)c1cnc(C(F)(F)F)cc1N)CC3 (stereo not shown) [Compound 251, 1-(5-(4-amino-6-(trifluoromethyl)nicotinoyl)-2-(4-cyclopropylphenyl)-9-(pyridin-3-ylmethoxy)-2,3,4,5,5a,6,8,9-octahydro-7H-1,2,5,7-tetraazabenzo[cd]azulen-7-yl)prop-2-en-1-one] | < 0.0015 | 0.005 to 0.015 | 1 to 100 | > 3000 |
| C=CC(=O)N1CCc2nn(-c3ccc(C4CC4)cc3OC(F)F)c3c2C(C1)N(C(=O)c1cnc(C(F)(F)F)cc1N)CC3 (stereo not shown) [Compound 252, 1-(5-(4-amino-6-(trifluoromethyl)nicotinoyl)-2-(4-cyclopropyl-2-(difluoromethoxy)phenyl)-2,3,4,5,5a,6,8,9-octahydro-7H-1,2,5,7-tetraazabenzo[cd]azulen-7-yl)prop-2-en-1-one] | 0.0015 to 0.005 | 0.005 to 0.015 | 1 to 100 | > 3000 |
| C=CC(=O)N1CC(OCC2CCOCC2)c2nn(-c3ccc(C4CC4)cc3)c3c2C(C1)N(C(=O)c1cnc(C(F)(F)F)cc1N)CC3 (stereo not shown) [Compound 255, 1-(5-(4-amino-6-(trifluoromethyl)nicotinoyl)-2-(4-cyclopropylphenyl)-9-((tetrahydro-2H-pyran-4-yl)methoxy)-2,3,4,5,5a,6,8,9-octahydro-7H-1,2,5,7-tetraazabenzo[cd]azulen-7-yl)prop-2-en-1-one] | < 0.0015 | 0.005 to 0.015 | 1 to 100 | > 3000 |
| C=CC(=O)N1CCc2nn(-c3ccc(C4CC4)cc3C(F)(F)F)c3c2C(C1)N(C(=O)c1cnc(C(F)(F)F)cc1N)CC3 (stereo not shown) [Compound 256, 1-(5-(4-amino-6-(trifluoromethyl)nicotinoyl)-2-(4-cyclopropyl-2-(trifluoromethyl)phenyl)-2,3,4,5,5a,6,8,9-octahydro-7H-1,2,5,7-tetraazabenzo[cd]azulen-7-yl)prop-2-en-1-one] | 0.015 to 0.055 | > 0.055 | 250 to 500 | > 3000 |
| CS(=O)(=O)/C=C/CN1CCc2nn(-c3ccc(C4CC4)cc3O)c3c2C(C1)N(C(=O)c1cnc(C(F)(F)F)cc1N)CC3 (stereo not shown) [Compound 257, (4-amino-6-(trifluoromethyl)pyridin-3-yl)(2-(4-cyclopropyl-2-hydroxyphenyl)-7-(3-(methylsulfonyl)allyl)-3,4,6,7,8,9-hexahydro-2H-1,2,5,7-tetraazabenzo[cd]azulen-5(5aH)-yl)methanone] | > 0.055 | > 0.055 | > 1000 | > 3000 |
| C=CC(=O)N1CCc2nn(-c3ccc(C4CC4)c(F)c3O)c3c2C(C1)N(C(=O)c1cnc(OC(F)(F)F)c(F)c1N)CC3 (stereo not shown) [Compound 258, 1-(5-(4-amino-5-fluoro-6-(trifluoromethoxy)nicotinoyl)-2-(4-cyclopropyl-3-fluoro-2-hydroxyphenyl)-2,3,4,5,5a,6,8,9-octahydro-7H-1,2,5,7-tetraazabenzo[cd]azulen-7-yl)prop-2-en-1-one] | 0.005 to 0.015 | 0.015 to 0.055 | 1 to 100 | > 3000 |
| C=CC(=O)N1CC(OCC2=CCOCC2)c2nn(-c3ccc(C4CCC4)cc3)c3c2C(C1)N(C(=O)c1cnc(C(F)(F)F)cc1N)CC3 (stereo not shown) [Compound 260, 1-(5-(4-amino-6-(trifluoromethyl)nicotinoyl)-2-(4-cyclobutylphenyl)-9-((3,6-dihydro-2H-pyran-4-yl)methoxy)-2,3,4,5,5a,6,8,9-octahydro-7H-1,2,5,7-tetraazabenzo[cd]azulen-7-yl)prop-2-en-1-one] | < 0.0015 | 0.0015 to 0.005 | 1 to 100 | > 3000 |
